We go through nine compounds from patent US10457707B2, “Substituted urea depsipeptide analogs as activators of the CLPP endopeptidase” (priority 2015, dated 2019).

In general, IC50 refers to the point on the concentration scale where inhibition reaches its midpoint.

Converted amounts (≈) assume the structure as drawn. Like-named read-outs stand apart in the source and are kept apart here. *1 amine or outer side, *2 acyl side, *3 side chain or, on linkers, in order; H or OH if unused. Where a SMILES comes first, the peptide text is derived from it. Bridges are numbered along the chain shown (N, C = ends). [ ]: non-standard residue; d: D form. The star is where a group is joined. ξ: configuration not given here. Phe(3,5-F2) = N[C@@H](Cc1cc(F)cc(F)c1)C(=O)O; NH(4-OCF3-phenyl) = FC(F)(F)Oc1ccc(N*)cc1; Pro(4S-Me) = C[C@@H]1CN[C@H](C(=O)O)C1; Pro(4R-Me) = C[C@H]1CN[C@H](C(=O)O)C1; ξPro(4R-OH) = O=C(O)C1C[C@@H](O)CN1; NMeaThr = CN[C@H](C(=O)O)[C@H](C)O; ξPro(4R-Me) = C[C@H]1CNC(C(=O)O)C1; NH(4-Et-phenyl) = CCc1ccc(N*)cc1; NMeT = CN[C@H](C(=O)O)[C@@H](C)O; NH(4-Me-phenyl) = Cc1ccc(N*)cc1; ξNMeThr = CNC(C(=O)O)[C@@H](C)O; aThr = C[C@H](O)[C@H](N)C(=O)O; Pip = O=C(O)[C@@H]1CCCCN1; NMeA = CN[C@@H](C)C(=O)O; CO = O=C([*:1])[*:2]

Format in all cases: cell-based
Data set [1] in a line: Cytotoxicity assay (CellTiter-Glo cell viability, 72 hours). To be noted: African green monkey. In short, it runs like this:
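Viability measured by CellTiter-Glo luminescence after 72-hour compound exposure (serial dilutions, DMSO control) of Vero monolayers seeded at 5000 cells/well in 10% FBS DMEM. IC50 values are the range of two biologically independent experiments, each run in duplicate.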
For orientation: Cellular ATP, detected with luciferase, serves as a proxy for viable cell number.

Data set [2] relates to Staphylococcus aureus, ATCC 29213. The data set is described as follows: Minimal inhibitory concentration assay (microbroth dilution). The following applies: ATCC29213, read-out: Minimal Inhibitory Concentrations S. aureus ATCC 29213. In short, it runs like this: (§1)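 Visual read-out; MIC is the lowest drug concentration with no bacterial growth after overnight aerobic incubation at 37 °C. Compound was tested in two-fold dilutions starting at 200 μM final, with an inoculum of approximately 10^5 cfu/mL, following CLSI microdilution guidance.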

The subject of data set [3] is Bacillus subtilis, ATCC 23857. Described as above. The essentials:
as §1

The subject of data set [4] is Staphylococcus aureus, NRS70. The data set is described as above. In short, it runs like this:
as §1

Data set [5] concerns Streptococcus pyogenes, ATCC 700294. The description is as above. The essentials: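 Plates with two-fold compound dilution series in broth were incubated overnight, aerobically, at 37° C, following CLSI microdilution guidance.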
[6] abbreviates: Vero cells, 72 hours, growth inhibition, read-out: Cytotoxicity IC50.
Where [7] appears, read: Bacillus subtilis, ATCC23857, read-out: Minimal Inhibitory Concentrations B. subtilis ATCC 23857.
Where [8] appears, read: Staphylococcus aureus, NRS70, read-out: Minimal Inhibitory Concentrations S. aureus NRS70.
The mark [9] stands for this setting: Streptococcus pyogenes, ATCC700294, read-out: Minimal Inhibitory Concentrations S. pyogenes ATCC 700294.
Where [10] appears, read: Bacillus subtilis, ATCC23857; read-out: Minimal Inhibitory Concentrations B. subtilis ATCC 23857.
Setting [11] is: Staphylococcus aureus, NRS70; read-out: Minimal Inhibitory Concentrations S. aureus NRS70.
Where [12] appears, read: Streptococcus pyogenes, ATCC700294; read-out: Minimal Inhibitory Concentrations S. pyogenes ATCC 700294.

Consider `Cc1ccc(NC(=O)N[C@@H](Cc2cc(F)cc(F)c2)C(=O)N[C@@H]2C(=O)N3C[C@H](O)CC3C(=O)N(C)[C@@H](C)C(=O)N[C@@H](C)C(=O)N3C[C@H](C)CC3C(=O)O[C@H]2C)cc1` (stereo partly drawn) [Compound 31, (S)-3-(3,5-difluorophenyl)-N-((2S,6S,9S,11aS,13R,17S,18S,20aS)-13-hydroxy-2,6,9,10,18-pentamethyl-5,8,11,16,20-pentaoxohexadecahydro-1H,5H,16H-dipyrrolo[2,1-c:2′,1′-l][1]oxa[4,7,10,13]tetraazacyclohexadecin-17-yl)-2-(3-(p-tolyl)ureido)propanamide] ({NH(4-Me-phenyl)-CO}-[Phe(3,5-F2)][aThr][ξPro(4R-OH)][NMeA]A[ξPro(4R-Me)]; ester 2-C), for which the IC50 at 72 h in data set [1] (setting [6]) was more than 100 µM. The MIC in data set [2] worked out at 0.39 µM (≈ 0.311 µg/mL); in data set [3] (setting [7]), 0.39 µM (≈ 0.311 µg/mL); in data set [4] (setting [8]), 0.39 µM (≈ 0.311 µg/mL); in data set [5] (setting [9]), 0.78 µM (≈ 0.622 µg/mL).

Take `Cc1ccc(NC(=O)N[C@@H](Cc2cc(F)cc(F)c2)C(=O)N[C@@H]2C(=O)N3CCC[C@H]3C(=O)N(C)[C@@H]([C@@H](C)O)C(=O)N[C@@H](C)C(=O)N3C[C@@H](C)C[C@H]3C(=O)O[C@H]2C)cc1` [Compound 35, (S)-3-(3,5-difluorophenyl)-N-((2S,6S,9S,11aS,17S,18S,20aS)-9-((R)-1-hydroxyethyl)-2,6,10,18-tetramethyl-5,8,11,16,20-pentaoxohexadecahydro-1H,5H,16H-dipyrrolo[2,1-c:2′,1′-l][1]oxa[4,7,10,13]tetraazacyclohexadecin-17-yl)-2-(3-(p-tolyl)ureido)propanamide] ({NH(4-Me-phenyl)-CO}-[Phe(3,5-F2)][aThr]P[NMeT]A[Pro(4S-Me)]; ester 2-C): the IC50 at 72 h in data set [1] (setting [6]) was determined as 55.7 ± 3.6 µM. The MIC in data set [2] worked out at 0.2 µM (≈ 0.162 µg/mL); in data set [3] (setting [7]), 0.2 µM (≈ 0.162 µg/mL); in data set [4] (setting [8]), 0.1 µM (≈ 0.0812 µg/mL); in data set [5] (setting [9]), 0.39 µM (≈ 0.317 µg/mL).

`C[C@H]1C[C@H]2C(=O)O[C@@H](C)[C@H](NC(=O)[C@H](Cc3cc(F)cc(F)c3)NC(=O)Nc3ccc(OC(F)(F)F)cc3)C(=O)N3CCC[C@H]3C(=O)N(C)[C@@H]([C@@H](C)O)C(=O)N[C@@H](C)C(=O)N2C1` [Compound 36, (S)-3-(3,5-difluorophenyl)-N-((2S,6S,9S,11aS,17S,18S,20aS)-9-((R)-1-hydroxyethyl)-2,6,10,18-tetramethyl-5,8,11,16,20-pentaoxohexadecahydro-1H,5H,16H-dipyrrolo[2,1-c:2′,1′-l][1]oxa[4,7,10,13]tetraazacyclohexadecin-17-yl)-2-(3-(4-(trifluoromethoxy)phenyl)ureido)propanamide] ({NH(4-OCF3-phenyl)-CO}-[Phe(3,5-F2)][aThr]P[NMeT]A[Pro(4S-Me)]; ester 2-C): 25.4 ± 1.8 µM corresponded to half-maximal inhibition in data set [1] (IC50 at 72 h). Moreover, the MIC in data set [2] is 0.1 µM (≈ 0.0882 µg/mL); in data set [3] (setting [10]), 0.1 µM (≈ 0.0882 µg/mL); in data set [4] (setting [11]) it was 0.05 µM (≈ 0.0441 µg/mL); in data set [5] (setting [12]) it was 0.2 µM (≈ 0.176 µg/mL).

With `CCc1ccc(NC(=O)N[C@@H](Cc2cc(F)cc(F)c2)C(=O)N[C@@H]2C(=O)N3CCC[C@H]3C(=O)N(C)[C@@H]([C@@H](C)O)C(=O)N[C@@H](C)C(=O)N3C[C@@H](C)C[C@H]3C(=O)O[C@H]2C)cc1` [Compound 37, (S)-3-(3,5-difluorophenyl)-2-(3-(4-ethylphenyl)ureido)-N-((2S,6S,9S,11aS,17S,18S,20aS)-9-((R)-1-hydroxyethyl)-2,6,10,18-tetramethyl-5,8,11,16,20-pentaoxohexadecahydro-1H,5H,16H-dipyrrolo[2,1-c:2′,1′-l][1]oxa[4,7,10,13]tetraazacyclohexadecin-17-yl)propanamide] ({NH(4-Et-phenyl)-CO}-[Phe(3,5-F2)][aThr]P[NMeT]A[Pro(4S-Me)]; ester 2-C), in data set [1], the IC50 at 72 h came to 33.8 ± 1.6 µM. Moreover, the MIC in data set [2] amounted to 0.1 µM (≈ 0.0826 µg/mL); in data set [3] (setting [10]), 0.05 µM (≈ 0.0413 µg/mL); in data set [4] (setting [11]) it was 0.1 µM (≈ 0.0826 µg/mL); in data set [5] (setting [12]), 0.1 µM (≈ 0.0826 µg/mL).

Regarding `Cc1ccc(NC(=O)N[C@@H](Cc2cc(F)cc(F)c2)C(=O)N[C@@H]2C(=O)N3CCC[C@H]3C(=O)N(C)[C@@H]([C@@H](C)O)C(=O)N[C@@H](C)C(=O)N3C[C@H](C)C[C@H]3C(=O)O[C@H]2C)cc1` [Compound 38, (S)-3-(3,5-difluorophenyl)-N-((2R,6S,9S,11aS,17S,18S,20aS)-9-((R)-1-hydroxyethyl)-2,6,10,18-tetramethyl-5,8,11,16,20-pentaoxohexadecahydro-1H,5H,16H-dipyrrolo[2,1-c:2′,1′-l][1]oxa[4,7,10,13]tetraazacyclohexadecin-17-yl)-2-(3-(p-tolyl)ureido)propanamide] ({NH(4-Me-phenyl)-CO}-[Phe(3,5-F2)][aThr]P[NMeT]A[Pro(4R-Me)]; ester 2-C), the IC50 at 72 h in data set [1] (setting [6]) was 46.1 ± 5.5 µM. In addition, the MIC in data set [2] was 0.05 µM (≈ 0.0406 µg/mL); in data set [3] (setting [7]), 0.05 µM (≈ 0.0406 µg/mL); in data set [4] (setting [8]), 0.05 µM (≈ 0.0406 µg/mL); in data set [5] (setting [9]) it was 0.1 µM (≈ 0.0812 µg/mL).

As for `C[C@@H]1C[C@H]2C(=O)O[C@@H](C)[C@H](NC(=O)[C@H](Cc3cc(F)cc(F)c3)NC(=O)Nc3ccc(OC(F)(F)F)cc3)C(=O)N3CCC[C@H]3C(=O)N(C)[C@@H]([C@@H](C)O)C(=O)N[C@@H](C)C(=O)N2C1` [Compound 41, (S)-3-(3,5-difluorophenyl)-N-((2R,6S,9S,11aS,17S,18S,20aS)-9-((R)-1-hydroxyethyl)-2,6,10,18-tetramethyl-5,8,11,16,20-pentaoxohexadecahydro-1H,5H,16H-dipyrrolo[2,1-c:2′,1′-l][1]oxa[4,7,10,13]tetraazacyclohexadecin-17-yl)-2-(3-(4-(trifluoromethoxy)phenyl)ureido)propanamide] ({NH(4-OCF3-phenyl)-CO}-[Phe(3,5-F2)][aThr]P[NMeT]A[Pro(4R-Me)]; ester 2-C), the IC50 at 72 h in data set [1] worked out at 23.9 ± 2 µM. In addition, the MIC in data set [2] stood at 0.02 µM (≈ 0.0176 µg/mL); in data set [3] (setting [10]), 0.01 µM (≈ 0.00882 µg/mL); in data set [4] (setting [11]), 0.01 µM (≈ 0.00882 µg/mL); in data set [5] (setting [12]) it was 0.1 µM (≈ 0.0882 µg/mL).

Regarding `Cc1ccc(NC(=O)N[C@@H](Cc2cc(F)cc(F)c2)C(=O)N[C@@H]2C(=O)N3CCC[C@H]3C(=O)N(C)[C@@H]([C@H](C)O)C(=O)N[C@@H](C)C(=O)N3C[C@H](C)C[C@H]3C(=O)O[C@H]2C)cc1` [Compound 208, (S)-3-(3,5-difluorophenyl)-N-((2R,6S,9S,11aS,17S,18S,20aS)-9-((S)-1-hydroxyethyl)-2,6,10,18-tetramethyl-5,8,11,16,20-pentaoxohexadecahydro-1H,5H,16H-dipyrrolo[2,1-c:2′,1′-l][1]oxa[4,7,10,13]tetraazacyclohexadecin-17-yl)-2-(3-(p-tolyl)ureido)propanamide] ({NH(4-Me-phenyl)-CO}-[Phe(3,5-F2)][aThr]P[NMeaThr]A[Pro(4R-Me)]; ester 2-C), in data set [1] (setting [6]), the IC50 at 72 h worked out at 46.1 ± 5.5 µM. Also, the MIC was determined as 0.05 µM (≈ 0.0406 µg/mL) in data set [2], 0.05 µM (≈ 0.0406 µg/mL) in data set [3] (setting [7]) and 0.1 µM (≈ 0.0812 µg/mL) in data set [5] (setting [9]).

`Cc1ccc(NC(=O)N[C@@H](Cc2cc(F)cc(F)c2)C(=O)N[C@@H]2C(=O)N3CCC[C@H]3C(=O)N3CCCC[C@H]3C(=O)N[C@@H](C)C(=O)N3C[C@H](C)C[C@H]3C(=O)O[C@H]2C)cc1` [Compound 209, (S)-3-(3,5-difluorophenyl)-2-(3-(p-tolyl)ureido)-N-((2R,6S,8aS,14aS,20S,21S,23aS)-2,6,21-trimethyl-5,8,14,19,23-pentaoxooctadecahydro-1H,5H,14H,19H-pyrido[2,1-i]dipyrrolo[2,1-c:2′,1′-l][1]oxa[4,7,10,13]tetraazacyclohexadecin-20-yl)propanamide] ({NH(4-Me-phenyl)-CO}-[Phe(3,5-F2)][aThr]P[Pip]A[Pro(4R-Me)]; ester 2-C): the IC50 at 72 h in data set [1] (setting [6]) came to 40 ± 4.1 µM. Further, the values for the MIC in data set [2], in data set [3] (setting [7]) and in data set [5] (setting [9]) were 0.05 µM (≈ 0.0404 µg/mL), 0.05 µM (≈ 0.0404 µg/mL) and 0.2 µM (≈ 0.162 µg/mL), respectively.

On to `Cc1ccc(NC(=O)N[C@@H](Cc2cc(F)cc(F)c2)C(=O)N[C@H]2COC(=O)[C@@H]3C[C@@H](C)CN3C(=O)[C@H](C)NC(=O)C([C@@H](C)O)N(C)C(=O)[C@@H]3CCCN3C2=O)cc1` (stereo partly drawn) [Compound 322, (S)-3-(3,5-difluorophenyl)-N-((2R,6S,9R,11aS,17S,20aS)-9-((R)-1-hydroxyethyl)-2,6,10-trimethyl-5,8,11,16,20-pentaoxohexadecahydro-1H,5H,16H-dipyrrolo[2,1-c:2′,1′-l][1]oxa[4,7,10,13]tetraazacyclohexadecin-17-yl)-2-(3-(p-tolyl)ureido)propanamide] ({NH(4-Me-phenyl)-CO}-[Phe(3,5-F2)]SP[ξNMeThr]A[Pro(4R-Me)]; ester 2-C), for which, in data set [1] (setting [6]), the IC50 at 72 h was 47.8 ± 3.2 µM. In addition, the MIC was determined as 0.078 µM (≈ 0.0622 µg/mL) in data set [3] (setting [7]), 0.313 µM (≈ 0.25 µg/mL) in data set [4] (setting [8]) and 0.625 µM (≈ 0.499 µg/mL) in data set [5] (setting [9]).
